Experiment: GSK PKIS2: Screen against O. lienalis microfilariae, single point, at 3.1uM to assess reduction in motility. Compounds were also tested for cytotoxicity against Rhesus Monkey LLCMK2 cells.
Type: functional, Onchocerca lienalis, LLC-MK2
Settings: CELL_LINE LLCMK2; CELL_SUPPLIER ECACC; CONC 3.1 uM; ORGANISM_SUPPLIER Extracted from peri-umbilical skin obtained from naturally infected cattle in the UK; temperature 37 degree C

Row | Compound | MOTILITY REDUCTION/CYTOTOXICITY
1 | COc1cc2ncnc(Nc3ccc(OCc4ccccc4Br)c(Cl)c3)c2cc1OC.Cl | 0%
2 | O=C(Nc1cccc(-c2nn3ncccc3c2-c2ccnc(Nc3cccc(C(F)(F)F)c3)n2)c1)c1c(F)cccc1F | 0%
3 | COC(=O)Nc1nc2ccc(Oc3ccc(NC(=O)Nc4cc(C(F)(F)F)ccc4Cl)cc3)cc2[nH]1 | 0%
4 | Nc1nc(-c2cccnc2)c(-c2ccnc3ccccc23)s1 | 33.4%
5 | Nc1ncnc2occ(-c3ccc(NC(=O)Nc4cc(C(F)(F)F)ccc4F)cc3)c12 [GW770249X] | 0%
6 | NCCS[As](SCCN)c1ccc(Nc2nc(N)nc(N)n2)cc1 | 100%
7 | O=c1cc(N2CCOCC2)nc2n(Cc3cccc(C(F)(F)F)c3)ccn12 | 26.7%
8 | Cc1ccc(NC(=O)Nc2ccccc2)cc1-c1ccc(C(=O)Nc2ccncc2)cc1 | 100%
9 | COc1cccc(C2=C(Nc3cccc(O)c3)C(=O)NC2=O)c1 | 13.4%
10 | CN(C)CCN(C)C(=O)c1cc(-c2ccncc2)c(-c2ccc(Cl)c(O)c2)o1 | 20%
11 | O=C(Nc1n[nH]c2cc(-c3ccoc3)ccc12)C1CC1 | 13.4%
12 | COc1ccc(NC(=O)c2ccoc2)cc1-c1ccc(C(=O)NCC2CC2)cc1 | 13.4%
13 | Cc1cccc(-c2cc(Nc3ccncc3)c3ccccc3n2)n1 | 0%
14 | CN1CCC(n2cnc(-c3ccc(F)cc3)c2-c2ccnc(NC3CCNCC3)n2)CC1 | 0%
15 | NS(=O)(=O)CCc1cccc(Nc2nccc(-c3c(-c4cccc(NC(=O)c5c(F)cccc5F)c4)nn4ccccc34)n2)c1 | 33.4%
16 | NS(=O)(=O)c1cccc(-c2ccc3nccc(-c4cccc(S(N)(=O)=O)c4)c3c2)c1 | 0%

Row | Compound | MOTILITY REDUCTION/CYTOTOXICITY
17 | c1ccc(Oc2ccc(Nc3ccnc4ccc(-c5ccccn5)cc34)cc2)cc1 | 0%
18 | COc1cc2nccc(Nc3ccc(NC(=O)c4ccc(C)cc4)c(O)c3)c2cc1OC | 0%
19 | CCS(=O)(=O)c1ccc(OC)c(Nc2nccc(-c3c(-c4cccc(NC(=O)c5c(F)cccc5F)c4)nn4ncccc34)n2)c1 | 33.4%
20 | Cc1c(Cn2c(C)nn3c(=O)cc(N4CCO[C@H](C)C4)nc23)cccc1C(F)(F)F | 0%
21 | COc1ccc(C2=C(Nc3cccc(C(=O)O)c3)C(=O)NC2=O)cc1 | 20%
22 | O=C1NC(=O)C(c2ccccc2)=C1Nc1ccc(Cl)c(C(=O)O)c1 | 0%
23 | CC(C)c1ccc(O)cc1Nc1ccnc2ccc(C(F)(F)F)cc12 | 33.4%
24 | COc1cc(Nc2nccc(-c3c(-c4cccc(NC(=O)c5c(F)cccc5F)c4)nn4ncccc34)n2)cc(OC)c1OC | 16.7%
25 | O=C(NCCNc1ccnc(Nc2ccc(F)cc2)n1)Nc1ccccc1F | 0%
26 | Cc1ccc(C(=O)Nc2ccc(Nc3ccnc4cc(-c5ccccn5)ccc34)cc2O)cc1 | 0%
27 | COc1cccc(C2=C(Nc3ccc(SC)cc3)C(=O)NC2=O)c1 | 0%
28 | O=c1cc(N2CCOCC2)nc2n(Cc3cccc(F)c3)ccn12 | 0%
29 | COc1ccc(CNC(=O)NC2CCN(c3ccnc(Nc4ccc(F)cc4)n3)CC2)cc1 | 33.4%
30 | CN(C)Cc1ccc(-c2ccc3c(Nc4ccc(Oc5ccccn5)cc4)ccnc3c2)o1 | 0%
31 | O=C(Nc1n[nH]c2nc(-c3cccs3)c(Br)cc12)C1CC1 | 0%
32 | Cc1n[nH]c2cc(Nc3ccnc(Nc4cccc(CN5CCOCC5)c4)n3)ccc12 | 0%

From ChEMBL document CHEMBL3988181, “GlaxoSmithKline Published Kinase Inhibitor Set 2 Onchocerca lienalis Screening Data”
